Measured values: patent US12594258B2, “Inhibitors of MHC-I Nef downmodulation for treating HIV” (priority 2019, dated 2026)

Legend:
[1] = CMA concentration in mouse plasma and lymph nodes by mass spectrometry; assay type: in vivo, mice; conditions: 2 hours after the final dose
Method: FIG. 8A is a schematic representation of experiments for FIG. 8B-D. Five mice per group received injections of CMA every 2 days for 10 doses. Blood plasma and lymph nodes were harvested from mice sacrificed 2 hours after the final injection.
FIG. 8D is a summary graph of mass spectrometry data quantifying the concentration of CMA in blood plasma from mice in each Group A and Group B.
FIG. 8E is a summary graph of mass spectrometry data quantifying the concentration of CMA in lymph nodes from mice in each Group A and Group B. Points represent the 5 individual mice within each group. LOD=limit of detection. Open circles represent samples with CMA below the limit of detection.
(§1) Mouse in vivo Assays. To further examine the tolerability of CMA, preliminary studies were performed in two groups of mice injected with different doses of CMA every other day for 18 days (FIG. 8A). […] In a separate experiment, plasma harvested from treated mice inhibited Nef in our in vitro assay (FIG. 8F). Taken together, these promising preliminary studies provide evidence that CMA is both efficacious and tolerable in vivo.

primary CD4+ T cells = test: MTT and flow cytometric viability assays in primary CD4+ T cells; assay type: cell-based, human
Method: CD4^+ T cells were plated at a density of 1×10^5 cells in 200 μL R10-50 in flat-bottom 96-well plates 4 days post-stimulation with PHA. Cells were exposed to titrations of plecomacrolides or solvent controls for 72 hours in culture, at which point viability was assessed relative to solvent by MTT assay in experimental duplicates. Equal volumes of cell culture medium containing CD4^+ T cells were pelleted in 96-well round-bottom plates and incubated in 4.5 mg/mL MTT (Fisher, M6494) in R10 with no Phenol Red at 37° C. until the purple formazan signal was clearly visible. The absorbance of cell pellets resuspended in DMSO was measured at 595 nm on a Molecular Devices Emax precision microplate reader and compared a standard curve of known viable cell numbers to ensure the experimental samples fell within the linear range of the assay.

[2] = test system: lysosomal pH in human monocyte-derive macrophages (MDMs); test: Lysosensor Yellow/Blue dextran analysis of lysosomal pH in MDMs; assay type: cell-based; conditions: 1 hour, read-out: EC50 for lysosome neutralization
Method: To measure the lysosomal pH in human monocyte-derive macrophages (MDMs), MDMs adhered to 24-well plates were exposed to 500 μg/mL Lysosensor Yellow/Blue dextran, 10,000 MW (ThermoFisher, L22460) in R10 for 24 hours. MDMs were then exposed to plecomacrolides for 1 hour and harvested with 0.05% Trypsin-EDTA (Gibco 25300054). Cells were washed twice in FACS buffer, and analyzed on a MoFlo Astrios flow cytometer, with blue signal excited from a 354 nm laser and yellow signal excited from a 405 nm laser. A standard curve was generated by resuspending MDMs in equilibration buffers of known pH as previously described. The ratio of blue:yellow fluorescence intensity was calculated for each cell, the median blue:yellow ratio for the cell population for each condition was obtained, and the lysosomal pH in MDMs was calculated for each condition using the standard curve.
Lysosensor Yellow/Blue Dextran Analysis of Lysosomal pH. To measure the lysosomal pH in human MDMs, MDMs adhered to 24-well plates were exposed to 500 μg/mL Lysosensor Yellow/Blue dextran, 10,000 molecular weight (MVV) in R10 for 24 h. MDMs were then exposed to plecomacrolides for 1 h and harvested with 0.05% Trypsin-(ethylenedinitrilo)tetraacetic acid (EDTA). Cells were washed twice in FACS buffer, and analyzed on a flow cytometer, with blue signal excited from a 354-nm laser and yellow signal excited from a 405-nm laser. A standard curve was generated by resuspending MDMs in equilibration buffers of known pH. The ratio of blue:yellow fluorescence intensity was calculated for each cell, the median blue:yellow ratio for the cell population for each condition was obtained, and the lysosomal pH in MDMs was calculated for each condition using the standard curve.

HIV Nef [3] = test system: HIV Nef
HIV Nef [4] = test: Nef activity in HIV-infected CD4+ T cells treated with plasma from CMA-injected mice; assay type: cell-based; conditions: plasma 30 minutes after injection, diluted 1:20
Method: FIG. 8F is a summary graph of flow cytometric data from experiments as in FIG. 1. Blood plasma was isolated from mice 30 minutes after injection with CMA, and CMA concentration was determined by mass spectrometry. Primary CD4+ T cells infected with HIV as in FIG. 1 were treated with 5% plasma from control mice spiked with known concentrations of CMA (standard curve) or with plasma from the CMA-injected mice diluted 1:20. Nef activity in cells receiving plasma from treated mice was compared to the standard curve based on the concentration of CMA as determined by mass spectrometry.
as §1

C/C=C/[C@H]1O[C@@](O)([C@@H](C)[C@H](O)[C@H](C)[C@H]2OC(=O)/C(OC)=C/C(C)=C/[C@@H](C)[C@@H](O)[C@@H](CC)[C@@H](O)[C@H](C)C/C(C)=C/C=C/[C@@H]2OC)C[C@@H](O[C@H]2C[C@@H](O)[C@H](OC(N)=O)[C@@H](C)O2)[C@@H]1C [CMA, concanamycin A]
viability (primary CD4+ T cells; 0.5 nM, 24-h incubation): 95%
EC50 [2]: 12.7 nM
Nef inhibition by plasma harvested from treated mice (HIV Nef [4]): inhibited Nef
